Measured values reported in US11407977B2, “Tissue scaffolds for electrically excitable cells” (Innovative Surface Technologies, Inc., priority 2013, dated 2022).

Test system: bioartificial rat hippocampal brain slice
Experiment: Evoked fEPSP field recording on bioartificial tissue scaffold with antagonist cocktail
Format: cell-based
Details: cocktail in ACSF: CNQX 10 microM, APV 50 microM, Bicuculline Methbromide 50 microM; 10 minute wash-in; 28 d.i.v.; drug-subtracted average fEPSP, FIG. 12
Experimental: Dissociated hippocampal cells were seeded on open-field scaffolds and grown in an incubator as described in Example 9, to generate bioartificial open field hippocampal brain tissue “slices.” FIG. 11 is a photo micrograph of the bioartificial tissue, on its scaffold, in a conventional field recording chamber.
Bioartificial tissue scaffolds were removed from the incubator for electrophysiological testing between 14-90 days in vitro (d.i.v.). For electrophysiological field recordings, bioartificial tissue scaffolds were suspended on a nylon mesh in a small (350-400 μl) recording chamber (FIG. 11) and perfused with artificial cerebrospinal fluid (ACSF) at a rate of 2.5-3 ml/min (submerged mode). The temperature in the recording chamber was held at 30-32° C. Recordings were made using an ACSF-filled glass micropipette (2-4 MΩ) positioned as shown (FIG. 6) and connected via a head stage to the amplifier (A-M Systems model 1800). Signals were digitized at 100 kHz using a Digidata 1550 series interface (Axon instruments) running ClampEx 10.4. Synaptic responses were evoked by electrical stimulation using a bipolar tungsten electrode (tip spacing, 140 micrometers; Frederick Haer Company) and a 100 microsecond square wave test pulse was delivered at intervals of twenty seconds (FIG. 6). Stimulus-response relationship was established over the range of 0-1000 microV. […]

SMILES	effect on evoked fEPSP
N[C@@H](CCCP(=O)(O)O)C(=O)O [APV]	sensitivity of the bioartificial rat hippocampal brain slice
N#Cc1cc2[nH]c(=O)c(=O)[nH]c2cc1[N+](=O)[O-] [CNQX]	sensitivity of the bioartificial rat hippocampal brain slice
